# Results published in patent US20180092908A1, “SMALL MOLECULE OXIDIZERS OF PDI AND THEIR USE” (THE TRUSTEES OF COLUMBIA UNIVERSITY IN THE CITY OF NEW YORK, priority 2015, published 2018).
# Like-named read-outs stand apart in the source and are kept apart here.
# How the values were obtained:
# physchem = details: DMSO, organic solvent or mixture
# PC12 mHTT^Q103 cells [1] = test: Rescue of PC12 cells from mHTT^Q103 induced cell death (Alamar blue viability); assay type: cell-based; details: Rattus norvegicus
# From the text: PC12 mHTT^Q103 cells were a gift from Erik S. Schweitzer (UCLA School of Medicine, Los Angeles, Calif.). These cells are stably transfected with the first exon of human HTT gene containing the pathogenic 103 CAG/CAA repeat expansion, under the control of the ecdysteroid promoter (Aiken et al., 2004). The plasmid also contains a Bombyx mori ecdysone receptor gene fused at N-terminal with VP16 transactivation domain (Suhr et al., 1998; Vilaboa et al., 2011). Addition of the ecdysone analog, tebufenozide, to the cell culture medium is used to initiate the transcription of mutant HTT (Aiken et al., 2004).
# PC12 mHTT^Q103 cells were cultured in DMEM containing 4.5 g/I glucose, 25 mM HEPES, sodium pyruvate, and no L-glutamine (Mediatech, cat. no. 15-018-CV), supplemented with 10% (v/v) Cosmic Calf serum, 2 mM L-glutamine, 100 units/mL of penicillin-streptomycin, and 0.5 mg/ml active geneticin. Cells were grown at 37° C., 9.5% CO2, and the medium was replaced with fresh medium every 2-3 days. To induce mHTT^Q103 expression for experiments, tebufenozide, a gift from Lynne Moore and Fred H. Gage (The Salk Institute for Biological Studies, La Jolla, Calif.), was added to the medium at 200 nM final concentration from 1 mM stock in 85% ethanol.
# LOC mother plates with compounds at 4 mg/ml were thawed and spun down (1000 rpm, 20° C., 1 min) prior to use. Biomek FX (Beckman Coulter) robotic liquid dispenser was used to handle all liquid transferring and mixing. […] Two fold serial dilution was performed across five daughter plates by transferring 50 μl of compounds (at […]) from the D1 plate into 50 μl of PC12 medium in daughter plate D2, mixing, and then repeating the process for the remaining three plates. Daughter plate D1 with compounds at […], daughter plate D3 with compounds at 20 μl/ml and daughter plate D5 with compounds at 5 μl/ml were then used for the screen. Assay plates were set up by seeding tebufenozide-induced PC12 mHTT^Q103 cells into 384-well black, clear-bottom plates (Corning Inc. cat. no. 3712) at a density of 7,500 cells per well in 57 μl PC12 medium without geneticin. Three microliters of compound from the daughter plates (D1, D3, and D5) were added to the assay plates for a final compound concentration of 4 μl/ml, 1 μl/ml, and 0.25 μl/ml. Four wells containing uninduced PC12 mHTT^Q103 cells and four wells containing medium only, were also included on each plate as controls. The assay plates were incubated at 37° C., 9.5% CO2 for 48 hours. Twenty microliters of 40% Alamar blue (Life Technologies cat. no. DAL1100) solution in PC12 medium was added to each well (1:10 final dilution) and the plates were incubated for an additional 12-24 hours at 37° C., 9.5% CO2. Alamar blue fluorescence was read on a fluorescence plate reader (PerkinElmer Victor3) with 530 nm excitation filter and 590 nm emission filter. Each compound concentration was tested in triplicate.
# The follow-up testing of primary screen hits was performed in a similar way. Fresh powder stocks of primary hits were re-ordered from vendors, dissolved in DMSO and tested in a two-fold serial dilution across 10 wells in both tebufenozide-induced and uninduced PC12 mHTT^Q103 cells. Dose-response curves were plotted as mean±SD and fit to either four-parameter sigmoidal (for uninduced cells) or bell-shaped (induced) function using Prism (GraphPad Software).
# A cascade of two assays was used, involving both a phenotypic high-throughput screening (HTS) assay and an in vitro PDI reductase assay, to identify neuroprotective PDI-inhibiting compounds. […] Alamar blue was used as a fluorescent readout for viability after 48 hours of compound treatment and mHTT^Q103 induction. […] All the candidate hit compounds were re-tested in a two-fold dilution series.
# Solubility = details: for solubility: Table 4
# [2] = biological target: T1, human catalytic PDI A1 a domain (PDIa) (Homo sapiens, UniProt P07237); test: Isothermal titration calorimetry (ITC) binding to PDIa; details: PDIa
# T1 construct: made in house; host or cells: Escherichia coli BL21-Gold (DE3)
# T1 sequence (P07237 with tags, fused parts or gaps): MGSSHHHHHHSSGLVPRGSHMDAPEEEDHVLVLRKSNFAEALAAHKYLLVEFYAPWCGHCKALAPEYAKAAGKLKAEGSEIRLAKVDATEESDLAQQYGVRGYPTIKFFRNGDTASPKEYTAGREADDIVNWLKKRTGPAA
# Procedure: All ITC experiments were carried out at 25° C. on MicoCal Auto-ITC200 system (GE Healthcare). Reduced PDIa was dialyzed into ITC buffer (20 mM sodium phosphate buffer pH 7.8) and loaded into a sample cell at 40 μM concentration. The compound solution was loaded into a syringe at 400 μM in the same ITC buffer with a final DMSO concentration at 0.4% (v/v). ITC titration experiments were carried out at 25° C. with 19 injections, 2 μl per injection, and 180 seconds between each injection. The reference cell power was set to 5 μcal/sec. A control experiment was performed for each compound, where each compound was titrated into buffer to account for heat released due to dilution. This background was subtracted from test data before a final dissociation constant was obtained. Data were analyzed using a one-site binding model in Origin 7.1 software. […] Gibbs free energy, ΔG, was calculated from equation ΔG=ΔH−TΔS. All other parameters, Ka, n, ΔH, ΔS, were determined directly from the titration data.
# For ITC experiments with 16F16 pre-treatment, 40 μM PDIa (after dialysis into ITC buffer) was treated with 200 μM 16F16 for 12-15 hours at 4° C. Next day the whole solution was loaded into the sample cell. LOC14 at 400 μM in ITC buffer was loaded into syringe and titrated into PDIa+16F16 loaded cell. For control experiments, ITC buffer with 200 μM 16F16 was used in the cell, while 400 μM LOC14 in ITC buffer was used in the syringe.
# The binding mode of LOC14 to PDIa was next investigated using isothermal titration calorimetry (ITC). ITC measures the heat released or absorbed during a biomolecular interaction. It is a direct analytical method for determining the binding and thermodynamic parameters, such as reaction stoichiometry (n), binding constants (Ka and Kd), enthalpy (ΔH), entropy (ΔS), and free energy (ΔG) of an interaction.
# [3] = biological target: T2, recombinant catalytic a domain of human PDI A1 (PDIa) (Homo sapiens, UniProt P07237); test: Insulin aggregation assay (PDIa reductase activity); assay type: biochemical; details: for Insulin Assay (either active or inactive): Table 5
# T2 construct: made in house; host or cells: Escherichia coli BL21-Gold (DE3)
# T2 sequence (P07237 with tags, fused parts or gaps): as above
# From the text: In this insulin aggregation assay (Xu et al., 2012; Jasuja et al., 2012; Khan et al., 2011; Smith et al., 2004), PDIa reduced the two disulfide bonds between the α- and β-chains of insulin, causing the β-chain to aggregate and precipitate, resulting in an increase in absorbance at 650 nm.
# To investigate the mode of binding further and to determine whether the binding was reversible or irreversible, the recovery of enzymatic activity of PDIa after dilution of pre-formed concentrated PDIa-LOC14 complexes was analyzed. LOC14 (750 μM) was incubated with a concentrated solution of PDIa (500 μM). The mixture was then diluted 100-fold and PDI's enzymatic activity was measured in the insulin reduction assay. As a control, the same procedure was also performed on the sample containing an irreversible inhibitor, 16F16 (16F16 at 750 μM and PDIa at 500 μM). […] This illustrated that unlike 16F16, LOC14 binding to PDIa is reversible.
# [4] = Mouse microsome stability assay; assay type: in vitro ADME; details: compound 0.5 μM
# Procedure: At 0, 5, 15, 30 and 45 minute intervals, an aliquot was taken and quenched with acetonitrile (ACN) containing internal standard. No-cofactor controls at 45 minutes were prepared. Following completion of the experimentation, the samples were analyzed by LC-MS/MS. […] C=initial×exp (−k×t). Intrinsic clearance (CLint) was calculated as liver clearance from the half-life using the following equation: CLint=k×(ml incubation/0.5 mg protein)×(52.5 mg protein/g liver). Results were reported as peak area ratios of analyte to internal standard. The intrinsic clearance (CLint) was determined from the first order elimination constant by non-linear regression. The microsome stability assay, plasma stability assay, and plasma protein binding assay were each performed by Alliance Pharma, Inc. (Malvern, Pa.).
# [5] = Mouse plasma stability assay; assay type: in vitro ADME; details: compound 1.0 μM
# Procedure: Test compound (1 μM) was incubated at 37° C. for up to 120 minutes in mouse plasma. At 0, 15, 30, 60, and 120 minute intervals an 100 μL aliquot was taken and quenched with 200 μL acetonitrile (ACN) containing internal standard. Following completion of the experimentation, the samples were analyzed by LC-MS/MS. The half-life (t1/2) was calculated using the following equation: t1/2=0.693/k, where, k is the elimination rate constant of test compounds obtained by fitting the data to the equation: C=initial×exp (−k×t). Results were reported as peak area ratios of analyte to internal standard.
# The microsome stability assay, plasma stability assay, and plasma protein binding assay were each performed by Alliance Pharma, Inc. (Malvern, Pa.).
# [6] = biological target: T1, human catalytic PDI A1 a domain (PDIa); test: Isothermal titration calorimetry (ITC) binding to PDIa; details: PDIa; remark: listed apart in the source
# [7] = biological target: T2, recombinant catalytic a domain of human PDI A1 (PDIa); test: Insulin aggregation assay (PDIa reductase activity); assay type: biochemical; details: compound 750 μM
# PC12 mHTT^Q103 cells [8] = details: Hoffstrom et al., 2010; read-out: EC50, rescue of PC12 mHTT^Q103 cells (previously identified inhibitor); cited from earlier work
# [9] = PC-12, Table 5, read-out: Cell Viability Assay EC50
# [10] = first site, Table 5, read-out: ITC Assay KD1 (2 binding sites)
# [11] = first site, Table 4, read-out: ITC KD1 (two binding site)
smiles,measurement,setting,value
CC(C)(C)OC(=O)NC1CCN(Cn2sc3ccccc3c2=O)CC1 [LC-8],solubility,physchem,50 mM
same,EC50,PC12 mHTT^Q103 cells [1]; [9],384 nM
same,Solubility in DMSO,Solubility; Table 5,50 mM in DMSO
same,Kd,"[2]; Table 4, read-out: ITC KD",94.3 nM
same,Kd,"[2]; Table 5, read-out: ITC Assay KD",94.3 nM
same,Insulin Assay (either active or inactive),[3],Active
"CCOc1ccc2ccc(=O)oc2c1 [7-Ethoxycoumarin, reference compound]",Elimination rate constant (k),[4]; mouse liver microsomes,0.2341
same,"Intrinsic Clearance (CLint), mL/min/g liver",[4]; mouse liver microsomes,24.58 mL/min/g liver
same,half-life at 0.5 μM,"[4]; mouse, liver microsomes, pH 7.4, mouse liver microsomes, read-out: Half-life (t1/2)",3 min
"CCOC(=O)[C@H](CCc1ccccc1)N[C@@H](C)C(=O)N1CCC[C@H]1C(=O)O [Enalapril, reference compound]",% Remaining after 2-hour incubation,[5],4.3%
same,Elimination rate constant (k),[5],0.0201
same,half-life at 1 μM,[5]; read-out: Half-life (t1/2) (converted),36 min
O=c1c2ccccc2sn1-c1ccccc1 [LC-24],solubility,physchem,50 mM
same,EC50,"PC12 mHTT^Q103 cells [1]; PC-12, read-out: Cell Viability Assay EC50",1130 nM
same,Kd,[6]; [10],8.1 nM
same,Insulin Assay (either active or inactive),[3],not active
"COC(=O)C1(C)c2[nH]c3ccccc3c2CCN1C(=O)CCl (centres unmarked) [16F16, reference compound]",inhibition of PDI's reduction of insulin without dilution,[7],able to inhibit
same,EC50,PC12 mHTT^Q103 cells [8],1000 nM
same,PDI's enzymatic activity after dilution of pre-formed complex,"[3]; compound 750 μM + PDIa 500 μM, diluted 100-fold",still inhibited
"O=c1c2ccccc2sn1Cc1ccccc1 [LC-5, 2-benzylbenzo[d]isothiazol-3(2H)-one]",Kd,[6]; [11],42.7 nM
same,Kd,[6]; [10],42.7 nM
same,Kd,"[6]; read-out: ITC Assay KD2 (2 binding sites), second site, Table 5",2270 nM
same,Solubility in DMSO,Solubility; Table 5,100 mM in DMSO
same,Insulin Assay (either active or inactive),[3],Active
"O=c1c2ccccc2sn1CN1CCN(Cn2sc3ccccc3c2=O)CC1 [LC-9, 2,2′-(piperazine-1,4-diylbis(methylene))bis(benzo[d]isothiazol-3(2H)-one)]",solubility,physchem,< 6.75 mM
same,EC50,PC12 mHTT^Q103 cells [1]; [9],173 nM
same,solubility,Solubility,poor solubility
same,"Solubility (words, printed in ITC Assay column)",Solubility; Table 5,poor solubility
same,Insulin Assay (either active or inactive),[3],Active
"O=c1c2ccccc2[se]n1-c1ccccc1 [Ebselen, reference compound]",Kd,[6]; [11],5.2 nM
same,Kd,"[6]; second site, Table 4, read-out: ITC KD2 (two binding site)",111 nM
same,solubility,Solubility,Poor
